In the NIST ThermoML archive (doi:10.1016/j.jct.2012.05.001) one finds viscosity and mass density data, which are given here for two compounds.

The conditions of this data set: 101.33 kPa, Liquid; for viscosity: Falling or rolling sphere viscometry; for mass density: Vibrating tube method.

± gives the expanded uncertainty stated by the source.

For the compound `NCCO.O=CO` [2-hydroxyethylammonium formate], the viscosity runs as follows: (293.15 K) 67.61 ± 1.1 mPa·s; (298.15 K) 52.01 ± 0.61 mPa·s; (303.15 K) 40.51 ± 0.52 mPa·s; (323.15 K) 18.19 ± 0.26 mPa·s; (343.15 K) 9.698 ± 0.14 mPa·s. In addition, the mass density is, setting by setting: (293.15 K) 1178.5 ± 25 kg/m3; (298.15 K) 1175.1 ± 25 kg/m3; (303.15 K) 1171.7 ± 25 kg/m3; (323.15 K) 1158.1 ± 25 kg/m3; (343.15 K) 1144.3 ± 25 kg/m3.

For the compound `O=C[O-].OCC[NH2+]CCO` [diethanolammonium formate], the viscosity (293.15 K) amounted to 807.6 ± 98 mPa·s; the viscosity (298.15 K) was found to be 533.41 ± 56 mPa·s; the viscosity (303.15 K) amounted to 369.63 ± 32 mPa·s; the viscosity (323.15 K) was determined as 106.16 ± 3.9 mPa·s; the viscosity (343.15 K) was found to be 41.09 ± 0.8 mPa·s. Besides, the mass density is listed as 1205 ± 25 kg/m3 (293.15 K); 1201.7 ± 25 kg/m3 (298.15 K); 1198.3 ± 25 kg/m3 (303.15 K); 1185 ± 25 kg/m3 (323.15 K); 1171.7 ± 25 kg/m3 (343.15 K).

One may read the viscosity as the internal friction of a fluid under shear. The term mass density denotes mass per unit of volume.
